Each structure is given as a SMILES string.

The values that follow come from US20160067255A1, “METHODS OF TREATING OR PREVENTING HIV IN PATIENTS USING A COMBINATION OF TENOFOVIR ALAFENAMIDE AND DOLUTEGRAVIR” (priority 2014, published 2016).

A short description of the data set: Oral pharmacokinetics of TAF alone or in combination with dolutegravir in male beagle dogs (plasma, LC/MS). The following applies: dog; for half-life: T1/2 (estimated terminal elimination half-life). The protocol:
TAF was dosed at 5 mg/kg (as free base) orally in solution to fasted male beagle dogs (N=6 animals, mean weight 10 kg). On Day 1, TAF was administered alone. On days 2, 3, 4 and 5, 3 mg/kg of Dolutegravir (DTG) was administered alone (as free acid). Both compounds were administered on Day 6. The plasma pharmacokinetic profiles of TAF and its nucleotide metabolite tenofovir (TFV) were determined by LC/MS in samples taken on Day 1 and Day 6 of dosing.
The oral dosing formulation for TAF was 0.1% Hydroxypropylmethylcellulose K100LV, 0.1% Polysorbate 20, 99.8% deionized water. For dolutegravir, the oral dosing formulation was 0.5% Hydroxypropylmethylcellulose LV 100 and 0.1% Tween 20 in deionized water.
The animals were fasted overnight prior to each dose administration and up to 4 hr after dosing. The blood samples were collected on days 1 and 6 predose and at the following time points following dosing: 0.25, 0.5, 1, 2, 4, 6, 8, 12 and 24 hour. The blood samples were collected into Vacutainer™ tubes containing Sodium Fluoride/Potassium Oxalate (BD Biosciences). The blood samples were centrifuged at 4° C. to separate plasma. Plasma samples were frozen and stored in −70° C. freezers.
Plasma was prepared by protein precipitation by adding acetonitrile to a final concentration of 70% in the presence of internal standard. Following filtration to remove precipitated protein, samples were evaporated, reconstituted with mobile phase A (0.2% formate in water) and analyzed using injections of 5 μl for analysis.

[1] abbreviates: Day 6 (TAF + DTG) versus Day 1 (TAF alone).
The mark [2] stands for this setting: male, beagle, in vivo, po, 5 mg/kg, TAF in plasma, Day 1, TAF 5 mg/kg oral alone, fasted male beagle dogs, mean n=6.
Setting [3] is: male, beagle, in vivo, po, 5 mg/kg, TAF in plasma, Day 6, TAF 5 mg/kg oral co-administered with DTG 3 mg/kg after 4 daily doses of DTG, male beagle dogs, mean n=6.
Setting [4] is: male, beagle, in vivo, po, 5 mg/kg.

What is called AUC(0-t) is exposure summed from dosing to a finite time, without extrapolation to infinity. As usually defined, the Cmax is the highest concentration seen after dosing. One may read the half-life as how long it takes for the measured level to halve. Usually Tmax stands for the time at which the peak concentration occurs. Consider `CC(C)OC(=O)[C@H](C)N[P@](=O)(CO[C@H](C)Cn1cnc2c(N)ncnc21)Oc1ccccc1` [TAF, 9-[(R)-2-[[(S)-[[(S)-1-(isopropoxycarbonyl)ethyl]amino]phenoxyphosphinyl]-methoxy]propyl]adenine], for which, under setting [1], the “increase of maximal concentrations (Cmax) of TAF upon coadministration with DTG” value is recorded as “approximately 2 fold” and the “increase of oral exposure of TAF upon coadministration with DTG” value is listed as “approximately 2 fold”. Moreover, where the note is “male, beagle, in vivo, po, 5 mg/kg, AUC0-24hr, TAF in plasma, Day 1, TAF 5 mg/kg oral alone, fasted male beagle dogs, mean n=6”, the AUC(0-t) is 0.174 µM·h. Besides, where the note is “male, beagle, in vivo, po, 5 mg/kg, AUC0-24hr, TAF in plasma, Day 6, TAF 5 mg/kg oral co-administered with DTG 3 mg/kg after 4 daily doses of DTG, male beagle dogs, mean n=6”, the exposure AUC(0-t) worked out at 0.345 µM·h. In addition, under setting [2], the Cmax is 412 nM, the half-life was 11.4 min and the Tmax is 17.4 min. In addition, under setting [3], the Cmax was 818 nM and the Tmax came to 15 min.

Usually AUC(0-inf) stands for total exposure, with the tail of the curve extrapolated. Take `C[C@H](Cn1cnc2c(N)ncnc21)OCP(=O)(O)O` [TFV, Tenofovir]: the “TFV levels in Day 1 pre-dose plasma samples” value (male, beagle, in vivo) is under 10 nM. Also, under setting [4], the exposure AUC(0-t) turned out to be 1.6 µM·h, the highest concentration (Cmax) turned out to be 253 nM, the half-life was 1500 min and the Tmax was 75 min. Further, under “male, beagle, in vivo, po, 5 mg/kg, AUC0-inf”, the AUC(0-inf) was found to be 2.92 µM·h.
